The values below come from patent US8110682B2, “Preparation and use of compounds as aspartyl protease inhibitors” (Schering Corporation, priority 2005, dated 2012).

The assay deals with T1, sproBACE1 (soluble human BACE1) (Homo sapiens, UniProt P56817).
T1 construct: sBACE1, corresponding to amino acids 1-454; myc (C); His (C); made in house; host or cells: Sf9 insect cells (baculovirus), secreted into medium
As to the kind of experiment: BACE-1 peptide hydrolysis assay (HTRF, APPsw substrate). Type of assay: biochemical. The conditions noted are these: 7 nM sproBACE1, pH 5.0, 30° C. The source says: A predicted soluble form of human BACE1 (sBACE1, corresponding to amino acids 1-454) is generated from the full length BACE1 cDNA (full length human BACE1 cDNA in pcDNA4/mycHisA construct; University of Toronto) by PCR using the advantage-GC cDNA PCR kit (Clontech, Palo Alto, Calif.). A HindIII/Pmel fragment from pcDNA4-sBACE1 myc/His is blunt ended using Klenow and subcloned into the Stu I site of pFASTBACI(A) (Invitrogen). A sBACE1mycHis recombinant bacmid is generated by transposition in DH10Bac cells(GIBCO/BRL). Subsequently, the sBACE1 mycHis bacmid construct is transfected into sf9 cells using CellFectin (Invitrogen, San Diego, Calif.) in order to generate recombinant baculovirus. […]
Proteins, are eluted from the Q-sepharose column with Buffer B (20 mM HEPES, pH 8.0, 500 mM NaCl). […] Peak protein fractions as determined by the Bradford Assay (Biorad, Calif.) are concentrated using a Centricon 30 concentrator (Millipore). sBACE1 purity is estimated to be ˜90% as assessed by SDS-PAGE and Commassie Blue staining. […]
IC50 determinations for inhibitors, (I), are determined by measuring the percent change of the relative fluorescence at 665 nm divided by the relative fluorescence at 620 nm, (665/620 ratio), in the presence of varying concentrations of I and a fixed concentration of enzyme and substrate.
A general note: TR-FRET usually uses a lanthanide donor and a delayed reading to cut background.

T1 sequence (P56817 22-454): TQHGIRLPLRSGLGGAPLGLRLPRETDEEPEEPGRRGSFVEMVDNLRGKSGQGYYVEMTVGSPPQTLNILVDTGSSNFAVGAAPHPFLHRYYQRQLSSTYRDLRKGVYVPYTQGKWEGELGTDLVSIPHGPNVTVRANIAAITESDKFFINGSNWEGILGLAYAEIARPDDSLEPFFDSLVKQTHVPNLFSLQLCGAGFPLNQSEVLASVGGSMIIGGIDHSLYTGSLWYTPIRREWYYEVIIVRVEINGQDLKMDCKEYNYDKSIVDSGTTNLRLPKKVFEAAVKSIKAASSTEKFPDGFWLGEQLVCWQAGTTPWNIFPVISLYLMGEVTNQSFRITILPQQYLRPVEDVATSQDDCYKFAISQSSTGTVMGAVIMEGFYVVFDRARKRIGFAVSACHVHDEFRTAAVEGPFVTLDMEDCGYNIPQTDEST

`CN1C(=N)NC(C)(c2cccc(-c3cc(Cl)cc(Cl)c3)c2)N(C)C1=O` (stereo not shown) [Example 7]: the Ki was 1.36 µM.

What is called Ki is a dissociation constant, usually derived from enzyme kinetics or from competition with a known ligand.
